# Assay results as given in paper PMC5085761 (International Journal of Molecular Sciences, 2016).
# Assays:
# LLC-PK1 monolayers = test: Apical-to-basal transport through LLC-PK1 monolayers; assay type: in vitro ADME, pig; conditions: 10 µM tracer, at 120 min
# Method: The LLC-PK1 cell line was purchased from DS Pharma Biomedical (Osaka, Japan). Cells were maintained in Dulbecco’s modified Eagle’s medium (DMEM; Life Technologies Japan, Tokyo, Japan) supplemented with 10% (v/v) fetal bovine serum (American Type Culture Collection, Manassas, VA, USA) and antibiotics (100 U/mL penicillin and 100 μg/mL streptomycin (Life Technologies Japan)). Cells were cultured at 37 °C under an atmosphere containing 5% CO2 before the start of the experiments.
# Cells were seeded at a density of 1.5 × 10^6 cells/0.25 mL on the membrane of cell culture inserts fitting 24-well plates (upper compartment, apical side; Becton Dickinson, Franklin Lakes, NJ, USA). Flat-bottom 24-well tissue culture plates (Becton Dickinson) containing 0.95 mL of culture medium per well were used as the basolateral side (bottom compartment).
# LLC-PK1 monolayer formation was monitored by the measurement of TER using an EVOM-2 and Endohm24 (World Precision Instruments, Inc., Sarasota, FL, USA) according to the manufacturer’s protocol. […] [^3H]Mannitol transport was measured as described in Section 4.3 for the validation of tight junction formation because mannitol passes through the cell monolayers via the paracellular route.
# Experimental procedures were performed as described previously with minor modifications. After cultivation as described above, the culture media in both compartments were replaced with Na^+ buffer (137 mM NaCl, 2.7 mM KCl, 8 mM Na2HPO4, 1.5 mM KH2PO4, 5.6 mM D-glucose, 0.9 mM CaCl2, and 0.5 mM MgCl2; pH 7.4 at 37 °C), and the cells were preincubated for 10 min at 37 °C under normal air conditions. After the buffer was removed from each compartment, the permeability experiments were started with the addition of 0.25 mL of Na^+ buffer containing radiolabeled tracers (final concentration: 81 nM for [^3H]mannitol and 10 μM for the ^14C-labeled amino acid tracers) in each upper compartment, and 0.95 mL of Na^+ buffer in each bottom compartment. The inserts were placed into new 24-well culture plates containing 0.95 mL/well of Na^+ buffer after 5, 15, 30, 60, and 90 min of incubation. Subsequently, the cells were incubated up to 120 min at 37 °C under normal air conditions.
# The apical-to-basal permeability was measured by sampling an aliquot of the buffer from the upper and bottom compartment at the indicated times. To evaluate intracellular accumulation, the cells were lysed in 0.5 mL of 0.1N NaOH at room temperature following rapid washing of the cells with ice-cold Na^+ buffer. The radioactivity of each aliquot was measured with an LSC6000SC (Beckman Coulter, Inc., Brea, CA, USA) or Tri-Carb 2910TR liquid scintillation counter (PerkinElmer) using Ultima Gold (PerkinElmer).
# OATP1B1 = biological target: T1, OATP1B1 (Homo sapiens, UniProt Q9Y6L6); test: [14C]fluciclovine uptake by OATP1B1-expressing cells; assay type: in vitro ADME; conditions: OATP1B1 cells vs mock cells
# T1 construct: host or cells: HEK293
# T1 sequence (Q9Y6L6 1-691): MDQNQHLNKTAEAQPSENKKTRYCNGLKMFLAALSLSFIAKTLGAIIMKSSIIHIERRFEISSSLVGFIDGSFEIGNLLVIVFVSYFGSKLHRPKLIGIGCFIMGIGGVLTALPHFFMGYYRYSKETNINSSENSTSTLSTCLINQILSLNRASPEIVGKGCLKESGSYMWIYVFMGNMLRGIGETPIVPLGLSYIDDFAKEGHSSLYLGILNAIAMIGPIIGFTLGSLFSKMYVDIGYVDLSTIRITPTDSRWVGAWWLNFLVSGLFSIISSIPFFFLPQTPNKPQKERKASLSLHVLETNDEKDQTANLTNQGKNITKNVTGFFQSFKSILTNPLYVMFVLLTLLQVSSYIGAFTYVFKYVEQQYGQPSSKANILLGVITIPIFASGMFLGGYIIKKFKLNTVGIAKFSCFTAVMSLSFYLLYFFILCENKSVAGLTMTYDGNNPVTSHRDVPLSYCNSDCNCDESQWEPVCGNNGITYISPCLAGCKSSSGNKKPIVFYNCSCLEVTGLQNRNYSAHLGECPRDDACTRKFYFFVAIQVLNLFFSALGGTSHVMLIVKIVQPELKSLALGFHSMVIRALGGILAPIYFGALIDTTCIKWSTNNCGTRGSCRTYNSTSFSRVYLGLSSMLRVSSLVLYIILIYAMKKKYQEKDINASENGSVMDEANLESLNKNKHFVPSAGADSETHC
# Method: For the SLC transporter experiments, Mock Flp-in-293 cells (Flp/mock), OAT1-expressing Flp-in-293 cells (Flp/OAT1), mock HEK293 cells (HEK/mock), and OATP1B3-expressing HEK293 cells (HEK/OATP1B3) were obtained from Kanazawa University (Ishikawa, Japan). Briefly, Flp-in-293 and HEK293 cells were transfected with the appropriate plasmid DNA and selected using antibiotics (hygromycin or G-418). All cell lines were cultured in DMEM (Life Technologies Japan) supplemented with 10% (v/v) fetal bovine serum (American Type Culture Collection) and antibiotics (100 U/mL penicillin and 100 μg/mL streptomycin (Life Technologies Japan) for mock cells, 0.2 mg/mL hygromycin for Flp/OAT1 cells, and 1.2 mg/mL G-418 (Roche Diagnostics K.K., Tokyo, Japan) for HEK/OATP1B3 cells) at 37 °C under an atmosphere containing 5% CO2. […]
# The experiments were performed as described previously, with minor modifications. […] The cells were lysed in 0.3 mL of 0.1N NaOH at room temperature, after which the radioactivity of each aliquot was measured as described above. The protein concentration of the cell lysate was determined with a VersaMax microplate reader (Molecular Devices Japan K.K., Osaka, Japan) or SpectraMax i3x (Molecular Devices Japan K.K.; only for OATP1B1) using a BCA Protein Assay Kit (Thermo Fisher Scientific, Kanagawa, Japan). Tracer uptake was expressed as pmol/mg protein. […]
structure (smiles),measurement,setting,value
"N[14C]1(C(=O)O)CC(F)C1 (stereo not drawn) [[^14C]fluciclovine, trans-1-amino-3-fluoro[1-^14C]cyclobutanecarboxylic acid]",mean penetration amount (apical-to-basal transport),LLC-PK1 monolayers,145 pmol
same,mean residual radioactivity in the cells,LLC-PK1 monolayers,238 pmol
same,drug transporter-mediated uptake,OATP1B1,negligible
